# Results: patent publication US20230000813A1, “COMPOUND FOR THE TREATMENT OF BOVINE OR SWINE RESPIRATORY DISEASE” (Intervet Inc., priority 2016, published 2023)
# Key:
# Test in all cases: MIC, broth-microdilution (CLSI VET01-A4)
# Type in all cases: cell-based
# [1] = tested on: Mannheimia haemolytica MH 13093 (XB0472-6014.1, BRD field isolate)
# Outline: (§1)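 Broth microdilution per CLSI VET01-A4 using doubling dilution series of compound. MIC taken as the lowest concentration with no turbidity visible to the unaided eye, interpreted per CLSI VET01-S3.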
# [2] = tested on: Mannheimia haemolytica MH 13065 (XB0446-6003.9, BRD field isolate)
# Outline: as §1
# [3] = tested on: Mannheimia haemolytica MH 6374 (ATCC 33396, reference strain); settings: Mannheimia haemolytica MH 6374; read-out: MIC MH 6374
# Outline: (§2)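 MIC values follow CLSI VET01-S3 interpretation, scored as the lowest concentration free of visible turbidity within a doubling dilution series in microdilution trays.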
# [4] = tested on: Mannheimia haemolytica MH 10720 (154, BRD field isolate); settings: Mannheimia haemolytica MH 10720; for MIC: read-out: MIC MH 10720
# Outline: as §2
# [5] = tested on: Pasteurella multocida PM 6391 (ATCC 43137, reference strain); settings: Pasteurella multocida PM 6391; for MIC: read-out: MIC PM 6391
# Outline: as §2
# [6] = tested on: Mannheimia haemolytica MH 12587 (1071, BRD field isolate, macrolide-resistance: erm+, E+); settings: Mannheimia haemolytica MH 12587, macrolide-resistant
# Outline: as §2
# [7] = tested on: Mannheimia haemolytica MH 6357 (M7/2, reference strain, cattle infection strain); settings: Mannheimia haemolytica MH 6357; read-out: MIC MH 6357
# Outline: as §2
# [8] = tested on: Pasteurella multocida PM 12080 (IV102277-0093, BRD field isolate); settings: Pasteurella multocida PM 12080; for MIC: read-out: MIC PM 12080
# Outline: as §2
# [9] = tested on: Pasteurella multocida PM 6267 (P 2225 (L386), reference strain, mouse infection strain); settings: Pasteurella multocida PM 6267; for MIC: read-out: MIC PM 6267
# Outline: as §2
# [10] = tested on: Pasteurella multocida PM 10775 (080130003051, BRD field isolate); settings: Pasteurella multocida PM 10775
# Outline: as §2
SMILES,MIC [1],MIC [2],MIC [3],MIC [4],MIC [5],MIC MH 12587 [6],MIC [7],MIC [8],MIC [9],MIC ([10]; read-out: MIC PM 10775),MIC MH 10720 [4],MIC PM 12080 [8],MIC PM 6267 [9],MIC PM 10775 [10],MIC PM 6391 [5],MIC MH 13065 [2]
CSC(C)(C)[C@H](NC(=O)c1ccc(C#Cc2ccc(CNCc3ccnc(Cl)c3)cc2)cc1)C(=O)NO [Compound 594],1.6 µM,1.6 µM,1.6 µM,0.4 µM,0.8 µM,1.6 µM,1.6 µM,0.8 µM,0.4 µM,0.2 µM,,,,,,
"C[C@@H](O)[C@H](NC(=O)c1ccc(C#Cc2ccc(N)cc2)cc1)C(=O)NO [C. 245, 4-[2-(4-aminophenyl)ethynyI]-N-[(1S,2R)-2-hydroxy-1-(hydroxycarbamoyl)propyl]benzamide]",0.4 µM,0.4 µM,0.4 µM,,0.2 µM,0.8 µM,0.2 µM,,,,<=0.1 μM,<=0.1 μM,<=0.1 μM,<=0.1 μM,,
CC(C)C(NC(=O)c1ccc(C#Cc2ccc(CNCc3ccnc(Cl)c3)cc2)cc1)C(=O)NO (stereo not shown) [Compound 288],0.8 µM,0.8 µM,0.8 µM,0.2 µM,0.4 µM,1.6 µM,0.4 µM,0.2 µM,,,,,<=0.1 μM,<=0.1 μM,,
C[C@@H](O)[C@H](NC(=O)c1ccc(C#Cc2ccc(CNCc3nccs3)cc2)cc1)C(=O)NO [Compound 359],0.4 µM,0.2 µM,0.2 µM,,,0.4 µM,0.2 µM,,,,<=0.1 μM,<=0.1 μM,<=0.1 μM,<=0.1 μM,<=0.1 μM,
C[C@@H](O)[C@H](NC(=O)c1ccc(C#Cc2ccc(CN(C)Cc3ccccc3)o2)cc1)C(=O)NO [Compound 205],1.6 µM,0.8 µM,0.8 µM,,0.4 µM,1.6 µM,0.8 µM,0.2 µM,,,<=0.1 μM,,<=0.1 μM,<=0.1 μM,,
CC(C)(O)C(NC(=O)c1ccc(C#Cc2ccc(CNC3CC3)cc2)cc1)C(=O)NO (stereo not shown) [Compound 565],0.8 µM,0.4 µM,0.4 µM,,,1.6 µM,1.6 µM,,,,<=0.1 μM,<=0.1 μM,<=0.1 μM,<=0.1 μM,<=0.1 μM,
CSC(C)(C)[C@H](NC(=O)c1ccc(C#Cc2ccc(CNCC#N)cc2)cc1)C(=O)NO [Compound 592],0.4 µM,0.8 µM,0.8 µM,,0.2 µM,0.8 µM,0.4 µM,0.2 µM,,,<=0.1 μM,,<=0.1 μM,<=0.1 μM,,
CC(C)([C@H](NC(=O)c1ccc(C#Cc2ccc(CN3CCOCC3)cc2)cc1)C(=O)NO)S(C)(=O)=O [Compound 604],1.6 µM,0.8 µM,1.6 µM,0.2 µM,,1.6 µM,1.6 µM,,,,,<=0.1 μM,<=0.1 μM,<=0.1 μM,<=0.1 μM,
CC(C)(C(NC(=O)c1ccc(C#Cc2ccc(CNCc3cccnc3)cc2)cc1)C(=O)NO)S(C)(=O)=O (stereo not shown) [C. 613],0.8 µM,0.8 µM,0.4 µM,,,1.6 µM,0.8 µM,,,,<=0.1 μM,<=0.1 μM,<=0.1 μM,<=0.1 μM,<=0.1 μM,
CSC(C)(C)[C@H](NC(=O)c1ccc(C#Cc2ccc(CNCc3nccs3)nc2)cc1)C(=O)NO [Compound 744],1.6 µM,0.8 µM,0.8 µM,0.4 µM,0.4 µM,1.6 µM,0.8 µM,0.2 µM,0.4 µM,,,,,<=0.1 μM,,
CSC(C)(C)[C@H](NC(=O)c1ccc(C#Cc2ccc(CNCc3nccs3)cc2)cc1)C(=O)NO [Compound 600],0.8 µM,0.8 µM,1.6 µM,0.2 µM,0.4 µM,1.6 µM,0.8 µM,,,,,<=0.1 μM,<=0.1 μM,<=0.1 μM,,
CC(C)C(NC(=O)c1ccc(C#Cc2ccc(CNC3CC3)cc2)cc1)C(=O)NO (stereo not shown) [Compound 144],0.2 µM,,0.195 µM,,0.098 µM,0.2 µM,1.563 µM,,,,<=0.1 μM,<=0.1 μM,<=0.1 μM,<=0.1 μM,,<=0.1 μM
C[C@@H](O)[C@H](NC(=O)c1ccc(C#Cc2ccc(CNCc3ccnc(Cl)c3)cc2)cc1)C(=O)NO [Compound 257],0.4 µM,0.4 µM,0.2 µM,,,0.8 µM,0.2 µM,,,,<=0.1 μM,<=0.1 μM,<=0.1 μM,<=0.1 μM,<=0.1 μM,
CC(C)C(NC(=O)c1ccc(C#Cc2ccc(CNCc3ccccn3)cc2)cc1)C(=O)NO (stereo not shown) [Compound 289],0.8 µM,0.8 µM,0.8 µM,0.2 µM,0.4 µM,1.6 µM,0.4 µM,0.4 µM,,,,,<=0.1 μM,<=0.1 μM,,
CC(C)(N)C(NC(=O)c1ccc(C#Cc2ccc(CNCC(F)(F)F)s2)cc1)C(=O)NO (racemic) [Compound 648],1.6 µM,0.4 µM,0.4 µM,,0.4 µM,0.8 µM,0.8 µM,0.2 µM,,,<=0.1 μM,,<=0.1 μM,<=0.1 μM,,
C#CCNCc1ccc(C#Cc2ccc(C(=O)NC(C(=O)NO)C(C)(C)N)cc2)cn1 (racemic) [Compound 647],0.8 µM,0.8 µM,0.8 µM,0.4 µM,0.4 µM,1.6 µM,1.6 µM,0.4 µM,,,,,<=0.1 μM,<=0.1 μM,,
C[C@@H](O)[C@H](NC(=O)c1ccc(C#Cc2ccc(CN3CCc4ccccc4C3)s2)cc1)C(=O)NO [Compound 194],0.8 µM,0.4 µM,0.8 µM,,,0.8 µM,0.2 µM,,,,<=0.1 μM,<=0.1 μM,<=0.1 μM,<=0.1 μM,<=0.1 μM,
CSC(C)(C)[C@H](NC(=O)c1ccc(C#Cc2ccc(CNCc3cccs3)cc2)cc1)C(=O)NO [Compound 597],0.8 µM,0.8 µM,0.8 µM,,0.2 µM,1.6 µM,0.8 µM,,,,<=0.1 μM,<=0.1 μM,<=0.1 μM,<=0.1 μM,,
Cc1ccc(CNCc2ccc(C#Cc3ccc(C(=O)NC(C(=O)NO)C(C)C)cc3)cc2)cc1 (stereo not shown) [Compound 292],0.8 µM,0.8 µM,0.8 µM,0.4 µM,0.4 µM,1.6 µM,0.4 µM,0.4 µM,0.2 µM,,,,,<=0.1 μM,,
